According to patent publication US9777003B2, “Tricyclic heterocycles as bet protein inhibitors” (Incyte Corporation, priority 2013, dated 2017):
Counter-ions that a name gives are not always drawn.

Tests used:
BRD4-BD1 = BRD4-BD1 (Homo sapiens (Human), UniProt O60885); assay: BRD4 AlphaScreen assay, BRD4-BD1; format: binding; conditions: biotin-labeled tetra-acetylated histone H4 peptide, 75 min, room temperature, read-out: BRD4 BD-1 enzyme IC50
Summary of the method: (§1)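 AlphaScreen displacement of 50 nM biotin-tetra-acetylated H4 peptide from 3.8 nM BRD4-BD1 (1.25% DMSO) or 20 nM BRD4-BD2 (0.83% DMSO) in HEPES pH 7.4 buffer, 75 min RT. Streptavidin donor/GSH acceptor beads added, 75 min dark; IC50 from log-concentration curve fit.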

BRD4-BD2 = BRD4-BD2 (Homo sapiens (Human), UniProt O60885); assay: BRD4 AlphaScreen assay, BRD4-BD2; format: binding; conditions: biotin-labeled tetra-acetylated histone H4 peptide, 75 min, room temperature, read-out: BRD4 BD-2 enzyme IC50
Summary of the method: as §1

Row | IC50 (BRD4-BD1) [nM] | IC50 (BRD4-BD2) [nM] | SMILES
1 | ≤ 100 | ≤ 100 | Cc1nnc2ccc3c(cc(-c4ccn(C5CN(CCO)C5)n4)n3Cc3cccc(Cl)c3)n12 [Example 179, 2-(3-{3-[6-(3-Chlorobenzyl)-1-methyl-6H-pyrrolo[2,3-e][1,2,4]triazolo[4,3-a]pyridin-7-yl]-1H-pyrazol-1-yl}azetidin-1-yl)ethanol bis(trifluoroacetate) Salt]
2 | ≤ 100 | ≤ 100 | Cc1nnc2ccc3c(cc(-c4ccn(C5CN(CCC#N)C5)n4)n3Cc3cccc(Cl)c3)n12 [Example 181, 3-(3-{3-[6-(3-Chlorobenzyl)-1-methyl-6H-pyrrolo[2,3-e][1,2,4]triazolo[4,3-a]pyridin-7-yl]-1H-pyrazol-1-yl}azetidin-1-yl)propanenitrile bis(trifluoroacetate) Salt]
3 | ≤ 100 | ≤ 100 | Cc1nnc2ccc3c(cc(-c4ccn(CCC#N)n4)n3Cc3cccc(CN4CCC4)c3)n12 [Example 183, 3-(3-{6-[3-(Azetidin-1-ylmethyl)benzyl]-1-methyl-6H-pyrrolo[2,3-e][1,2,4]triazolo[4,3-a]pyridin-7-yl}-1H-pyrazol-1-yl)propanenitrile bis(trifluoroacetate) Salt]
4 | ≤ 100 | ≤ 100 | Cc1nnc2ccc3c(cc(-c4ccn(C)n4)n3Cc3cc(Cl)cc(CN4CCC4)c3)n12 [Example 185, 6-[3-(Azetidin-1-ylmethyl)-5-chlorobenzyl]-1-methyl-7-(1-methyl-1H-pyrazol-3-yl)-6H-pyrrolo[2,3-e][1,2,4]triazolo[4,3-a]pyridine tris(trifluoroacetate) Salt]
5 | ≤ 100 | ≤ 100 | CCn1ccc(-c2cc3c(ccc4nnc(C)n43)n2Cc2cc(Cl)cc(CN3CCC3)c2)n1 [Example 188, 6-(3-(Azetidin-1-ylmethyl)-5-chlorobenzyl)-7-(1-ethyl-1H-pyrazol-3-yl)-1-methyl-6H-pyrrolo[2,3-e][1,2,4]triazolo[4,3-a]pyridine tris(trifluoroacetate) Salt]
6 | ≤ 100 | ≤ 100 | CCn1ccc(-c2cc3c(ccc4nnc(C)n43)n2Cc2cc(Cl)cc(CN3CCCC3)c2)n1 [Example 189, 6-(3-Chloro-5-(pyrrolidin-1-ylmethyl)benzyl)-7-(1-ethyl-1H-pyrazol-3-yl)-1-methyl-6H-pyrrolo[2,3-e][1,2,4]triazolo[4,3-a]pyridine tris(trifluoroacetate) Salt]
7 | ≤ 100 | ≤ 100 | Cc1nnc2ccc3c(cc(-c4ccn(C)n4)n3Cc3cc(Cl)cc(CN4CCCC4)c3)n12 [Example 190, 6-[3-Chloro-5-(pyrrolidin-1-ylmethyl)benzyl]-1-methyl-7-(1-methyl-1H-pyrazol-3-yl)-6H-pyrrolo[2,3-e][1,2,4]triazolo[4,3-a]pyridine bis(trifluoroacetate) Salt]
8 | ≤ 100 | ≤ 100 | Cc1nnc2ccc3c(cc(-c4ccn(C)n4)n3Cc3cc(Cl)cc(CN4CCOCC4)c3)n12 [Example 192, 6-[3-Chloro-5-(morpholin-4-ylmethyl)benzyl]-1-methyl-7-(1-methyl-1H-pyrazol-3-yl)-6H-pyrrolo[2,3-e][1,2,4]triazolo[4,3-a]pyridine bis(trifluoroacetate) Salt]
9 | ≤ 100 | ≤ 100 | Cc1nnc2ccc3c(cc(C4=NCCO4)n3Cc3cccc(Cl)c3)n12 [Example 193, 6-(3-Chlorobenzyl)-7-(4,5-dihydro-1,3-oxazol-2-yl)-1-methyl-6H-pyrrolo[2,3-e][1,2,4]triazolo[4,3-a]pyridine]
10 | ≤ 100 | ≤ 100 | Cc1nnc2ccc3c(cc(-c4ncco4)n3Cc3cccc(Cl)c3)n12 [Example 194, 6-(3-Chlorobenzyl)-1-methyl-7-(1,3-oxazol-2-yl)-6H-pyrrolo[2,3-e][1,2,4]triazolo[4,3-a]pyridine Trifluoroacetate Salt]
11 | ≤ 100 | ≤ 100 | Cc1nnc2ccc3c(cc(-c4ncco4)n3Cc3cc(Cl)cc(CN4CC(C)(C)C4)c3)n12 [Example 196, 6-{3-Chloro-5-[(3,3-dimethylazetidin-1-yl)methyl]benzyl}-1-methyl-7-(1,3-oxazol-2-yl)-6H-pyrrolo[2,3-e][1,2,4]triazolo[4,3-a]pyridine bis(trifluoroacetate) Salt]
12 | ≤ 100 | ≤ 100 | Cc1nnc2ccc3c(cc(-c4ncco4)n3Cc3cc(Cl)cc(CN4CCCC4)c3)n12 [Example 197, 6-[3-Chloro-5-(pyrrolidin-1-ylmethyl)benzyl]-1-methyl-7-(1,3-oxazol-2-yl)-6H-pyrrolo[2,3-e][1,2,4]triazolo[4,3-a]pyridine bis(trifluoroacetate) Salt]
13 | ≤ 100 | ≤ 100 | Cc1nnc2ccc3c(cc(-c4ncco4)n3Cc3cc(Cl)cc(CN4CC(O)C4)c3)n12 [Example 198, 1-(3-Chloro-5-{[1-methyl-7-(1,3-oxazol-2-yl)-6H-pyrrolo[2,3-e][1,2,4]triazolo[4,3-a]pyridin-6-yl]methyl}benzyl)azetidin-3-ol bis(trifluoroacetate) Salt]
14 | ≤ 100 | ≤ 100 | Cc1cc2c(cc(Nc3cc[nH]n3)c3nnc(C)n32)n1Cc1ccccc1 [Example 200, 6-Benzyl-1,7-dimethyl-N-1H-pyrazol-3-yl-6H-pyrrolo[2,3-e][1,2,4]triazolo[4,3-a]pyridin-4-amine tris(trifluoroacetate) Salt]
15 | ≤ 100 | ≤ 100 | Cc1cc2c(cc(Nc3ncccn3)c3nnc(C)n32)n1Cc1ccccc1 [Example 201, 6-Benzyl-1,7-dimethyl-N-pyrimidin-2-yl-6H-pyrrolo[2,3-e][1,2,4]triazolo[4,3-a]pyridin-4-amine tris(trifluoroacetate) Salt]
16 | ≤ 100 | ≤ 100 | Cc1cc2c(cc(O)c3nnc(C)n32)n1Cc1ccccc1 [Example 204, 6-Benzyl-1,7-dimethyl-6H-pyrrolo[2,3-e][1,2,4]triazolo[4,3-a]pyridin-4-ol Trifluoroacetate Salt]
17 | ≤ 100 | ≤ 100 | Cc1cc2c(cc(NC3CCNCC3)c3nnc(C)n32)n1Cc1ccccc1 [Example 206, 6-Benzyl-1,7-dimethyl-N-piperidin-4-yl-6H-pyrrolo[2,3-e][1,2,4]triazolo[4,3-a]pyridin-4-amine]
18 | ≤ 100 | ≤ 100 | Cc1cc2c(cc(NC3CCN(C)CC3)c3nnc(C)n32)n1Cc1ccccc1 [Example 207, 6-Benzyl-1,7-dimethyl-N-(1-methylpiperidin-4-yl)-6H-pyrrolo[2,3-e][1,2,4]triazolo[4,3-a]pyridin-4-amine]
19 | ≤ 100 | ≤ 100 | Cc1cc2c(cc(NCCN3CCOCC3)c3nnc(C)n32)n1Cc1ccccc1 [Example 208, 6-Benzyl-1,7-dimethyl-N-(2-morpholin-4-ylethyl)-6H-pyrrolo[2,3-e][1,2,4]triazolo[4,3-a]pyridin-4-amine]
20 | ≤ 100 | ≤ 100 | COCCNc1cc2c(cc(C)n2Cc2ccccc2)n2c(C)nnc12 [Example 209, 6-Benzyl-N-(2-methoxyethyl)-1,7-dimethyl-6H-pyrrolo[2,3-e][1,2,4]triazolo[4,3-a]pyridin-4-amine]
21 | ≤ 100 | ≤ 100 | Cc1cc2c(cc(NCCO)c3nnc(C)n32)n1Cc1ccccc1 [Example 210, 2-[(6-Benzyl-1,7-dimethyl-6H-pyrrolo[2,3-e][1,2,4]triazolo[4,3-a]pyridin-4-yl)amino]ethanol]
22 | ≤ 100 | ≤ 100 | Cc1cc2c(cc(NC3CCN(S(C)(=O)=O)CC3)c3nnc(C)n32)n1Cc1ccccc1 [Example 211, 6-Benzyl-1,7-dimethyl-N-[1-(methylsulfonyl)piperidin-4-yl]-6H-pyrrolo[2,3-e][1,2,4]triazolo[4,3-a]pyridin-4-amine]
23 | ≤ 100 | ≤ 100 | CCN1CCC(Nc2cc3c(cc(C)n3Cc3ccccc3)n3c(C)nnc23)CC1 [Example 212, 6-Benzyl-N-(1-ethylpiperidin-4-yl)-1,7-dimethyl-6H-pyrrolo[2,3-e][1,2,4]triazolo[4,3-a]pyridin-4-amine]
24 | 100 to 1000 | ≤ 100 | Cc1cc2c(cc(NC3CCN(C(=O)OC(C)(C)C)CC3)c3nnc(C)n32)n1Cc1ccccc1 [Example 214, tert-Butyl 4-[(6-benzyl-1,7-dimethyl-6H-pyrrolo[2,3-e][1,2,4]triazolo[4,3-a]pyridin-4-yl)amino]piperidine-1-carboxylate]
25 | ≤ 100 | ≤ 100 | Cc1cc2c(cc(N[C@H]3CC[C@H](N)CC3)c3nnc(C)n32)n1Cc1ccccc1 [Example 217, trans-N-(6-Benzyl-1,7-dimethyl-6H-pyrrolo[2,3-e][1,2,4]triazolo[4,3-a]pyridin-4-yl)cyclohexane-1,4-diamine]
26 | ≤ 100 | ≤ 100 | Cc1cc2c(cc(N[C@H]3CC[C@@H](N)CC3)c3nnc(C)n32)n1Cc1ccccc1 [Example 218, cis-N-(6-Benzyl-1,7-dimethyl-6H-pyrrolo[2,3-e][1,2,4]triazolo[4,3-a]pyridin-4-yl)cyclohexane-1,4-diamine]
27 | ≤ 100 | ≤ 100 | CN[C@H]1CC[C@H](Nc2cc3c(cc(C)n3Cc3ccccc3)n3c(C)nnc23)CC1 [Example 219, trans-N-(6-Benzyl-1,7-dimethyl-6H-pyrrolo[2,3-e][1,2,4]triazolo[4,3-a]pyridin-4-yl)-N′-methylcyclohexane-1,4-diamine]

Row | SMILES | IC50 (BRD4-BD1) [nM] | IC50 (BRD4-BD2) [nM]
28 | Cc1cc2c(cc(Nc3ccn(C)n3)c3nnc(C)n32)n1Cc1ccccc1 [Example 202, 6-Benzyl-1,7-dimethyl-N-(1-methyl-1H-pyrazol-3-yl)-6H-pyrrolo[2,3-e][1,2,4]triazolo[4,3-a]pyridin-4-amine tris(trifluoroacetate) Salt] | ≤ 100 | ≤ 100
